Data published in patent US9023817B2, “Use of albiflorin for anti-depression” (priority 2009, dated 2015).

What was measured:
[1] = tested on: noradrenalin in the brain of rat; experiment: Noradrenalin in the brain of rat with chronic stress (HPLC-ECD, prefrontal cortex); type: in vivo, SD rats; conditions: 3.5 mg/kg/d gavage for 21 days
Protocol: After being fed without water for 24 hours, SD rats were administered with 1% aqueous sucrose, the consumption of aqueous sucrose was measured for 1 hour. The rats were randomly divided into six groups (n=12 for each group) according to the consumptions of aqueous sucrose, i.e. vehicle group, model group, positive control group of Fluoroxetine Hydrochloride (2.5 mg/kg/d), high-dose group (14 mg/kg/day), medium-dose group (7 mg/kg/day), and low-dose group (3.5 mg/kg/day) of Albiflorin. The gavage was carried out along with the model establishment, once a day, for 21 days. Each group was administered at a dose of 1.0 ml/100 g weight, and weighed once a week.
The rats were fed at 6/cage as vehicle group, with normal diets and drinking water, and without any stimulation.
The rats were fed at 1/cage as the other five groups, and subjected to unpredicted stress stimulations for 21 days, including: swimming in ice water, drying, tail nipping, wet feeding, reversed day and night, fasting, water deprivation and the like. One kind of stimulations was randomly given for each day.
The animal was executed by decapitation, the brain of it was quickly stripped on the ice, the prefrontal cortex was taken out, then placed into frozen tissue tube after weighting, rapidly frozen with liquid nitrogen, and placed into the refrigerator at −70° C. until test.

[2] = tested on: rats with chronic stress induced depression model; experiment: Body weights of rats with chronic stress induced depression (CUMS); type: in vivo, SD rats
Protocol: (§1) The gavage was carried out along with the model establishment, once a day, for 21 days. […] Referring to the methods in the literature (Xu Jing, Li Xiaoqiu, Establishment and evaluation of the model of chronic stress induced depression, Chinese Journal of Behavioral Medical Science, 2003, 12(1): 14 16), the model was established (i.e., establishing animal model of anti-depression by means of CUMS): the foot electric shock (voltage: […] (5 minutes), drying at 45° C. (5 minutes), tail nipping (1 min), wet feeding (wet mat), reversed day and night (24 hours), fasting (24 hours), water deprivation (24 hours) were randomly scheduled within 21 days, one kind of stimulations was given for each day, except for the animals of vehicle group, the others were separately caged with free diet, at the room temperature of (24±1)° C., with the relative humidity of (60±10)%. All parameters to be tested were expressed as Mean±SD (X±s), and tested by means of analysis of variance (ANOVA) in SPSS 12.0 software (purchased from SPSS Inc., USA), p<0.05 means that there was a significant difference.

[3] = tested on: rats with chronic stress induced depression model; experiment: Jump stair test, chronic stress induced depression; type: in vivo, SD rats; conditions: 3.5 mg/kg/day gavage for 21 days, 5 minutes
Protocol: as §1, with “(60±10)%. […] A wooden platform (height: 5 cm, diameter: 8 cm) was placed into the box at the left back corner. Animals were placed into the response box to adapt to the environment for 3 minutes, and then the box was immediately electrified with […] alternating current, the normal response of the animal which suffered from electric shock was to jump onto the platform in order to avoid such harmful stimulation. Most animals were likely to jump down to the copper railings again or for several times, and then quickly jump back to the platform after suffering from the electric shock, being trained like this for 5 minutes, the times that the rats suffered from the electric shock were designated as error times. The test was carried out again after 24 hours, rats were placed on the platform and the box was charged, timing and recording the error times for 5 minutes.” for “(60±10)%.”

[4] = tested on: rats with chronic stress induced depression model; experiment: Consumption of 1% aqueous sucrose, chronic stress induced depression; type: in vivo, SD rats; conditions: 1% aqueous sucrose for 1 hour
Protocol: The gavage was carried out along with the model establishment, once a day, for 21 days. […] Referring to the methods in the literature (Xu Jing, Li Xiaoqiu, Establishment and evaluation of the model of chronic stress induced depression, Chinese Journal of Behavioral Medical Science, 2003, 12(1): 14 16), the model was established (i.e., establishing animal model of anti-depression by means of CUMS): the foot electric shock (voltage: […] (5 minutes), drying at 45° C. […] All parameters to be tested were expressed as Mean±SD (X±s), and tested by means of analysis of variance (ANOVA) in SPSS 12.0 software (purchased from SPSS Inc., USA), p<0.05 means that there was a significant difference.

[5] = tested on: ICR mice; experiment: Acute toxicity test of Albiflorin; type: in vivo
Protocol: SFP level ICR mice were administered with Albiflorin at a dose of 8.4 g/kg, the observation time was 14 days.
The nature and rate of breath, behaviors (especially whether there was any vomit-causing phenomenon), actions, color and tension of fur, abdominal shape, hardness of feces, body weight and the like were observed.

C[C@]12C[C@@H](O)[C@@H]3C[C@@]1(O[C@@H]1O[C@H](CO)[C@@H](O)[C@H](O)[C@H]1O)[C@@]3(COC(=O)c1ccccc1)C(=O)O2 [Albiflorin]
NA [1]: 174.59 ± 60.35 | body weights ([2]; 3.5 mg/kg/day gavage, Day 0): 256.83 ± 11.49 g | body weights ([2]; 3.5 mg/kg/day gavage, Day 7): 265.65 ± 11.23 g | body weights ([2]; 3.5 mg/kg/day gavage, Day 14): 270.75 ± 18.15 g | body weights ([2]; 3.5 mg/kg/day gavage, Day 21): 271.07 ± 19.06 g | body weights ([2]; 7 mg/kg/day gavage, Day 0): 250.18 ± 13.45 g | body weights ([2]; 7 mg/kg/day gavage, Day 7): 265.65 ± 12.44 g | body weights ([2]; 14 mg/kg/day gavage, Day 0): 255.84 ± 11.69 g | body weights ([2]; 14 mg/kg/day gavage, Day 7): 268.11 ± 17.50 g | Error times in training period [3]: 2.25 ± 1.42 | Error times in testing period ([3]; after 24 hours): 2.08 ± 1.31 | comsumption of aqeous sucrose ([4]; 3.5 mg/kg/day gavage, Day 0): 12.75 ± 5.24 mL | comsumption of aqeous sucrose ([4]; 3.5 mg/kg/day gavage, Day 7): 12.67 ± 5.42 mL | comsumption of aqeous sucrose ([4]; 3.5 mg/kg/day gavage, Day 14): 11.83 ± 5.15 mL | comsumption of aqeous sucrose ([4]; 3.5 mg/kg/day gavage, Day 21): 11.92 ± 3.96 mL | comsumption of aqeous sucrose ([4]; 7 mg/kg/day gavage, Day 0): 12.67 ± 5.37 mL | comsumption of aqeous sucrose ([4]; 7 mg/kg/day gavage, Day 7): 13.42 ± 5.37 mL | comsumption of aqeous sucrose ([4]; 14 mg/kg/day gavage, Day 0): 12.50 ± 5.32 mL | comsumption of aqeous sucrose ([4]; 14 mg/kg/day gavage, Day 7): 14.08 ± 3.65 mL | comsumption of aqeous sucrose ([4]; 14 mg/kg/day gavage, Day 14): 13.00 ± 3.74 mL | safe dosage as multiple of the clinical dosage ([5]; 8.4 g/kg body weight, mice, by gavage): approximately 600 times | body weight compared with the vehicle group ([5]; 8.4 g/kg by gavage, Day 7 and Day 14): without significant difference | abnormal symptoms and death ([5]; 8.4 g/kg by gavage, observation for 14 days): neither any abnormal symptom nor any death was found | dosage at which still safe ([5]; mice, by gavage): 8.4 g/kg body weight
